Experimental data from patent US12691124B2, “Methods of controlling and improving brain health” (ICAHN SCHOOL OF MEDICINE AT MOUNT SINAI, priority 2019, dated 2026).

How the values were obtained:
[1] = system: C57bl/6 mice; assay: Brain gene expression in IBET858 treated mice; format: in vivo, mouse
Protocol: In vivo I-BET858 treatment. IBET858 was developed and validated by GlaxoSmithKline. I-BET858 solutions used for in vivo studies (3 mg/ml) were prepared in 10% Kleptose buffer with 5% DMSO (pH 6.5) and maintained at 4° C. I-BET858 was made fresh daily, buffers were made fresh each week. 30 mg/kg I-BET858 or vehicle (Kleptose buffer pH=6.5) was delivered by i.p injection. For acute treatment, 6-week-old mice received a single I-BET858 injection. […] Gene expression and behavioral changes were assessed in 6 weeks old mice at 4 h (acute, n=8-10 for behavior, n=2 for gene expression analysis) or 12 h (chronic, n=10 for behavior, n=2 for gene expression analysis) after the (last) I-BET858 injection, respectively.
RNA Isolation. For in vitro gene expression analysis, neuronal culture plates were washed once with PBS, and TRIzol was added directly to cultures to isolate RNA (n=3 per group). For in vivo gene expression analysis, mice were anesthetized with CO2 and decapitated. The striata from two control and acute or chronic I-BET treated mice were rapidly dissected on ice and frozen in liquid nitrogen. RNA extraction from frozen samples was performed using TRIzol/Chloroform according to manufacturer's instructions (Invitrogen Corporation, Carlsbad, CA). RNA was precipitated overnight at −80° C. in isopropanol with 0.15 M sodium acetate, washed twice with 70% ethanol, air-dried, and resuspended in RNase-free water. RNA samples were purified using Rneasy Micro columns (Qiagen) with on-column DNAse treatment as specified by manufacturer. RNA integrity was assayed using nanodrop and RNA Pico chip on Bioanalyzer 2100 (Agilent, Santa Clara, CA) for quality RIN>9.
IBET treatment induces neuroprotective gene expression changes in the hippocampus of mice in vivo (FIG. 23A).

[2] = system: primary microglia; assay: Gene expression in primary microglia treated with IBET858; format: cell-based, mouse
Protocol: Primary Microglia Culture. Postnatal day 0 C57/Bl6 mice were decapitated in ice cold HBSS. The forebrain was rapidly dissected and treated as above in order to generate a single cell suspension. 60,000 cells per cm2 were seeded in vented, Poly-D-lysine coated flasks. Mixed glial cultures were maintained in DMEM containing 10% FBS and 1% penicillin/streptomycin for 3 weeks. After three weeks, microglia were isolated by shaking the mixed glial cultures for 4 hours at 360 rpm and re-plated at density on 100,0000 cells/cm2. Cultures were given 24 hours to settle before treatment. Cultures were pre-treated for 30 minutes with either DMSO (0.01%) or 1 uM IBET858. After 30 minutes, LPS (100 ng/ml) was added to the cultures. RNA was isolated with Trizol LS according to the manufacturer's recommendations after 1, 4 and 12 hours of LPS treatment.
To test the role of BET proteins in microglial gene expression, primary microglia cultures from mouse forebrain were treated with the brain-permeable BET inhibitors IBET858 (1 μM) for 1, 4, or 12 hours (FIG. 3A). Because loss of BET activity in macrophages negatively impacts differentiation and proliferation189, microglia identity genes were examined to understand if microglial lineage is regulated by BET proteins (FIG. 3C). Hexb, Fcrls, and Fcer1g expression was unaffected by IBET858 indicating microglial differentiation is unaffected.

[3] = system: primary cortical neurons; assay: Axion multielectrode array recording of neuronal firing; format: cell-based, mouse
Protocol: Axion Recordings. A 48-well multielectrode array plate (Axion) was coated with 0.1% PEI for 1 hour at 37 degrees and washed four times with deionized water. Plates were dried overnight at room temperature in a sterile hood. Plates were incubated with 20 ug/ml laminin for one hour at 37 degrees before cells were seeded onto the plate. Primary cortical neurons were plated 50,000 per well. Plates were equilibrated on the Axion Maestro system at 37 degrees C. for 5 minutes before each 10 minute recording session. Baseline activity was recorded at day 7 before cells were treated with either I-BET858 (1 um) or DMSO. Electrical activity was recorded every day until day 21 and then at regular intervals until activity was no longer detected.
Therefore to determine the effect of chronic BET inhibition on electrical activity, neurons were cultured on the Axion Microelectrode array system in the presence of IBET858. Primary cortical neurons first show electrical activity at day 7 which gradually increases over time, peaking around day 14 consistent with published time courses of synaptogenesis and electrical activity in vitro. […] In one experiment, IBET858 treated neurons lived until day 77, 86% longer than control neurons.
One could argue that the protective effect of IBET858 was caused by a decreased sensing of glutamate levels. […] To further explore this hypothesis, neuronal firing in response to a sub-lethal dose of glutamate (50 μM) was measured using the Axion system (FIG. 10A). At day 14, neurons treated with 50 μM glutamate increased their firing rate 127.4+/−44.4% compared to baseline. […] Therefore, it is appropriate to use glutamate as a neuronal death assay.

[4] = IBET858 treated mice compared to vehicle

Compound: CC(=O)N1c2ccc(-c3ccc(CN4CCCCC4)cc3)cc2[C@H](Nc2ccccc2)CC1C (stereo in doubt) [IBET858]
- Casp3 gene expression levels ([1]; 5 week IBET858 treatment in vivo): unaffected
- autophagy and proteostasis genes [1, 4]: increased
- genes involved in metabolic pathways [1, 4]: downregulated
- immune response and cell activation pathway genes ([2]; 1 μM): suppresses
- genes significantly down-regulated ([2]; 1 μM IBET858, 4 hours): 1245 genes
- genes significantly down-regulated ([2]; 1 μM IBET858, 12 hours): 1175 genes
- microglia identity gene expression (Hexb, Fcrls, Fcer1g) ([2]; 1 μM, 1, 4 or 12 hours): unaffected
- phagocytosis gene expression ([2]; 1 μM, all time points): also unaffected
- day until which neurons lived, one experiment ([3]; 1 μM): 77 days
- lifetime longer than control neurons, one experiment ([3]; 1 μM): 86%
- neuronal survival (firing) after washout ([3]; 1 uM for 1 week followed by washout at day 14): prolonged neuronal survival that is maintained even in the absence of IBET
- activity patterns of long-lived treated neurons ([3]; 1 uM from day 7): maintain normal activity patterns
- day until which neurons continued to fire ([3]; 1 μM, control ceased firing on average at day 29): 45 days
- increase in firing rate compared to baseline after glutamate ([3]; 50 μM glutamate, day 14, control 127.4+/−44.4%): 129.3+/−26.2%
